Measurements from PubChem BioAssay AID1919008 (Molecular Pharmacology Branch, DTP, NCI, 2023).

Test system: DMS-114 complex spheroids with HUVEC/MSC, growth % test/control
Assay: Anticancer human tumor DMS-114 cell line growth inhibition [AhR];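 note: spheroids exposed to agents for 7 days before readout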;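 for viability, T/C: 100% = DMSO vehicle control wells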
Settings: for IC50: curve of first compound; for viability, T/C: stronger effect = lower value
Outline: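 Spheroids combined tumor cells with HUVEC endothelial cells and human MSCs as stroma. AhR antagonists were paired with standard or investigational drugs, each dosed in half-log steps down from near clinical Cmax, or from 10 microM where Cmax was unknown.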

[1] = second compound 0.1 µM, first compound 0.0316 µM
[2] = second compound 0.1 µM, first compound 0.1 µM
[3] = second compound 0.1 µM, first compound 0.316 µM
[4] = second compound 0.1 µM, first compound 1 µM
[5] = second compound 0.316 µM, first compound 0.0316 µM
[6] = second compound 0.316 µM, first compound 0.1 µM
[7] = second compound 0.316 µM, first compound 0.316 µM
[8] = second compound 0.316 µM, first compound 1 µM
[9] = second compound 1 µM, first compound 0.0316 µM
[10] = second compound 1 µM, first compound 0.1 µM
[11] = second compound 1 µM, first compound 0.316 µM
[12] = second compound 1 µM, first compound 1 µM
[13] = second compound 3.16 µM, first compound 0.0316 µM
[14] = second compound 3.16 µM, first compound 0.1 µM
[15] = second compound 3.16 µM, first compound 0.316 µM
[16] = second compound 3.16 µM, first compound 1 µM
[17] = second compound 10 µM, first compound 0.0316 µM
[18] = second compound 10 µM, first compound 0.1 µM
[19] = second compound 10 µM, first compound 0.316 µM
[20] = second compound 10 µM, first compound 1 µM
[21] = second compound 0.1 µM, first compound 3.16 µM
[22] = second compound 0.1 µM, first compound 10 µM
[23] = second compound 0.316 µM, first compound 3.16 µM
[24] = second compound 0.316 µM, first compound 10 µM
[25] = second compound 1 µM, first compound 3.16 µM
[26] = second compound 1 µM, first compound 10 µM
[27] = second compound 3.16 µM, first compound 3.16 µM
[28] = second compound 3.16 µM, first compound 10 µM
[29] = second compound 10 µM, first compound 3.16 µM
[30] = second compound 10 µM, first compound 10 µM
[31] = second compound 0.1 µM, first compound 0.00949 µM
[32] = second compound 0.1 µM, first compound 0.03 µM
[33] = second compound 0.1 µM, first compound 0.0949 µM
[34] = second compound 0.1 µM, first compound 0.3 µM
[35] = second compound 0.316 µM, first compound 0.00949 µM
[36] = second compound 0.316 µM, first compound 0.03 µM
[37] = second compound 0.316 µM, first compound 0.0949 µM
[38] = second compound 0.316 µM, first compound 0.3 µM
[39] = second compound 1 µM, first compound 0.00949 µM
[40] = second compound 1 µM, first compound 0.03 µM
[41] = second compound 1 µM, first compound 0.0949 µM
[42] = second compound 1 µM, first compound 0.3 µM
[43] = second compound 3.16 µM, first compound 0.00949 µM
[44] = second compound 3.16 µM, first compound 0.03 µM
[45] = second compound 3.16 µM, first compound 0.0949 µM
[46] = second compound 3.16 µM, first compound 0.3 µM
[47] = second compound 10 µM, first compound 0.00949 µM
[48] = second compound 10 µM, first compound 0.03 µM
[49] = second compound 10 µM, first compound 0.0949 µM
[50] = second compound 10 µM, first compound 0.3 µM

SMILES: CC1COCCN1c1cc(-c2ccnn2C)c2ccnc(-c3ccn[nH]3)c2n1 (stereo not given) + Cc1cncc(-c2nc(NCCc3c[nH]c4ccccc34)c3ncn(C(C)C)c3n2)c1
- IC50 (second compound 0.1 µM): 38 nM
- IC50 (second compound 0.316 µM): 51 nM
- IC50 (second compound 1 µM): 41.5 nM
- IC50 (second compound 3.16 µM): 41.8 nM
- IC50 (second compound 10 µM): < 3.16 nM
- viability, T/C (second compound 0.1 µM, first compound 0.00316 µM): 90.6%
- viability, T/C (second compound 0.1 µM, first compound 0.01 µM): 85.9%
- viability, T/C [1]: 51%
- viability, T/C [2]: 29.9%
- viability, T/C [3]: 19.6%
- viability, T/C [4]: 12.8%
- viability, T/C (second compound 0.316 µM, first compound 0.00316 µM): 97.1%
- viability, T/C (second compound 0.316 µM, first compound 0.01 µM): 93.7%
- viability, T/C [5]: 61.8%
- viability, T/C [6]: 31.4%
- viability, T/C [7]: 19.8%
- viability, T/C [8]: 12%
- viability, T/C (second compound 1 µM, first compound 0.00316 µM): 87.5%
- viability, T/C (second compound 1 µM, first compound 0.01 µM): 92.6%
- viability, T/C [9]: 55.3%
- viability, T/C [10]: 27.9%
- viability, T/C [11]: 23.6%
- viability, T/C [12]: 11.7%
- viability, T/C (second compound 3.16 µM, first compound 0.00316 µM): 83.9%
- viability, T/C (second compound 3.16 µM, first compound 0.01 µM): 85.9%
- viability, T/C [13]: 55.8%
- viability, T/C [14]: 26.7%
- viability, T/C [15]: 17%
- viability, T/C [16]: 11.2%
- viability, T/C (second compound 10 µM, first compound 0.00316 µM): 28.8%
- viability, T/C (second compound 10 µM, first compound 0.01 µM): 29.6%
- viability, T/C [17]: 22.6%
- viability, T/C [18]: 15.5%
- viability, T/C [19]: 9.12%
- viability, T/C [20]: 7.26%

SMILES: CC1COCCN1c1cc(C2(S(C)(=N)=O)CC2)nc(-c2ccnc3[nH]ccc23)n1 (stereo not given) + Cc1cncc(-c2nc(NCCc3c[nH]c4ccccc34)c3ncn(C(C)C)c3n2)c1
- IC50 (second compound 0.1 µM): 6130 nM
- IC50 (second compound 0.316 µM): 5180 nM
- IC50 (second compound 1 µM): 5900 nM
- IC50 (second compound 3.16 µM): 4840 nM
- IC50 (second compound 10 µM): 933 nM
- viability, T/C [1]: 98.5%
- viability, T/C [2]: 96%
- viability, T/C [3]: 119%
- viability, T/C [4]: 115%
- viability, T/C [21]: 81.9%
- viability, T/C [22]: 26.5%
- viability, T/C [5]: 105%
- viability, T/C [6]: 111%
- viability, T/C [7]: 100%
- viability, T/C [8]: 99.9%
- viability, T/C [23]: 64.1%
- viability, T/C [24]: 31%
- viability, T/C [9]: 122%
- viability, T/C [10]: 119%
- viability, T/C [11]: 114%
- viability, T/C [12]: 87.7%
- viability, T/C [25]: 77.3%
- viability, T/C [26]: 30.2%
- viability, T/C [13]: 98%
- viability, T/C [14]: 85.7%
- viability, T/C [15]: 93.5%
- viability, T/C [16]: 81.1%
- viability, T/C [27]: 64.3%
- viability, T/C [28]: 26%
- viability, T/C [17]: 53%
- viability, T/C [18]: 52.3%
- viability, T/C [19]: 67.7%
- viability, T/C [20]: 41.7%
- viability, T/C [29]: 39.8%
- viability, T/C [30]: 19.3%

SMILES: COc1ccc([C@@H](O)c2cc(-c3ncnc4cc(N5CCOCC5)ccc34)c(F)cc2Cl)nn1 + Cc1cncc(-c2nc(NCCc3c[nH]c4ccccc34)c3ncn(C(C)C)c3n2)c1
- IC50 (second compound 0.1 µM): > 10000 nM
- IC50 (second compound 0.316 µM): > 10000 nM
- IC50 (second compound 1 µM): > 10000 nM
- IC50 (second compound 3.16 µM): 7740 nM
- IC50 (second compound 10 µM): < 31.6 nM
- viability, T/C [1]: 125%
- viability, T/C [2]: 95.8%
- viability, T/C [3]: 102%
- viability, T/C [4]: 104%
- viability, T/C [21]: 107%
- viability, T/C [22]: 55.7%
- viability, T/C [5]: 101%
- viability, T/C [6]: 93%
- viability, T/C [7]: 96.2%
- viability, T/C [8]: 104%
- viability, T/C [23]: 87.5%
- viability, T/C [24]: 52.2%
- viability, T/C [9]: 98.7%
- viability, T/C [10]: 103%
- viability, T/C [11]: 99.8%
- viability, T/C [12]: 107%
- viability, T/C [25]: 94.4%
- viability, T/C [26]: 53.2%
- viability, T/C [13]: 87%
- viability, T/C [14]: 90.1%
- viability, T/C [15]: 98.7%
- viability, T/C [16]: 94.5%
- viability, T/C [27]: 85.4%
- viability, T/C [28]: 39.5%
- viability, T/C [17]: 35.6%
- viability, T/C [18]: 38.9%
- viability, T/C [19]: 29.7%
- viability, T/C [20]: 29.7%
- viability, T/C [29]: 17.9%
- viability, T/C [30]: 12.4%

SMILES: Nc1ncn(C2CC(O)C(CO)S2)c(=O)n1 (stereo not given) + Cc1cncc(-c2nc(NCCc3c[nH]c4ccccc34)c3ncn(C(C)C)c3n2)c1
- IC50 (second compound 0.1 µM): 222 nM
- IC50 (second compound 0.316 µM): 219 nM
- IC50 (second compound 1 µM): 294 nM
- IC50 (second compound 3.16 µM): 293 nM
- IC50 (second compound 10 µM): 43.8 nM
- viability, T/C (second compound 0.1 µM, first compound 0.000949 µM): 101%
- viability, T/C (second compound 0.1 µM, first compound 0.003 µM): 110%
- viability, T/C [31]: 80.4%
- viability, T/C [32]: 93.2%
- viability, T/C [33]: 57.6%
- viability, T/C [34]: 46.8%
- viability, T/C (second compound 0.316 µM, first compound 0.000949 µM): 86.7%
- viability, T/C (second compound 0.316 µM, first compound 0.003 µM): 97.1%
- viability, T/C [35]: 92.2%
- viability, T/C [36]: 84%
- viability, T/C [37]: 59.2%
- viability, T/C [38]: 46.5%
- viability, T/C (second compound 1 µM, first compound 0.000949 µM): 87.7%
- viability, T/C (second compound 1 µM, first compound 0.003 µM): 95.7%
- viability, T/C [39]: 99.5%
- viability, T/C [40]: 80.1%
- viability, T/C [41]: 73%
- viability, T/C [42]: 49.3%
- viability, T/C (second compound 3.16 µM, first compound 0.000949 µM): 102%
- viability, T/C (second compound 3.16 µM, first compound 0.003 µM): 98.6%
- viability, T/C [43]: 93.2%
- viability, T/C [44]: 94.5%
- viability, T/C [45]: 58.7%
- viability, T/C [46]: 49.5%
- viability, T/C (second compound 10 µM, first compound 0.000949 µM): 57%
- viability, T/C (second compound 10 µM, first compound 0.003 µM): 51.4%
- viability, T/C [47]: 55.5%
- viability, T/C [48]: 54.7%
- viability, T/C [49]: 43.7%
- viability, T/C [50]: 37.7%

SMILES: O=C(C=Cn1cnc(-c2cc(C(F)(F)F)cc(C(F)(F)F)c2)n1)NNc1cnccn1 + Cc1cncc(-c2nc(NCCc3c[nH]c4ccccc34)c3ncn(C(C)C)c3n2)c1
- IC50 (second compound 0.1 µM): 158 nM
- IC50 (second compound 0.316 µM): 175 nM
- IC50 (second compound 1 µM): 166 nM
- IC50 (second compound 3.16 µM): 166 nM
- IC50 (second compound 10 µM): < 9.49 nM
- viability, T/C [31]: 111%
- viability, T/C [32]: 101%
- viability, T/C [33]: 61.7%
- viability, T/C [34]: 32.7%
- viability, T/C (second compound 0.1 µM, first compound 0.949 µM): 15.1%
- viability, T/C (second compound 0.1 µM, first compound 3 µM): 5.4%
- viability, T/C [35]: 103%
- viability, T/C [36]: 99.8%
- viability, T/C [37]: 63.5%
- viability, T/C [38]: 36.6%
- viability, T/C (second compound 0.316 µM, first compound 0.949 µM): 14.4%
- viability, T/C (second compound 0.316 µM, first compound 3 µM): 5.66%
- viability, T/C [39]: 110%
- viability, T/C [40]: 109%
- viability, T/C [41]: 65.3%
- viability, T/C [42]: 31.7%
- viability, T/C (second compound 1 µM, first compound 0.949 µM): 13.6%
- viability, T/C (second compound 1 µM, first compound 3 µM): 5.72%
- viability, T/C [43]: 94%
- viability, T/C [44]: 109%
- viability, T/C [45]: 61.1%
- viability, T/C [46]: 34.5%
- viability, T/C (second compound 3.16 µM, first compound 0.949 µM): 15.1%
- viability, T/C (second compound 3.16 µM, first compound 3 µM): 5.67%
- viability, T/C [47]: 38.6%
- viability, T/C [48]: 34.2%
- viability, T/C [49]: 30.6%
- viability, T/C [50]: 21.1%
- viability, T/C (second compound 10 µM, first compound 0.949 µM): 13.5%
- viability, T/C (second compound 10 µM, first compound 3 µM): 7.49%
